From PubChem BioAssay (NCI)
“And” between values parts separate entries of the source, which are not always exact repeats. Identical values can stand only once.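 1) Cells in 96-well plates. 2) Compound, 48 h, 5 concentrations. 3) Linear interpolation between surrounding doses. 4) Unreached endpoint = highest concentration. At the GI50, growth is halved. At the TGI there is no net growth.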

What was measured:
Test in all cases: growth of human tumour cells (NCI), 48 h
SR leukemia = system: SR leukemia
ACHN renal = system: ACHN renal
SF-268 CNS = system: SF-268 CNS
SK-MEL-5 melanoma = system: SK-MEL-5 melanoma
SNB-19 CNS = system: SNB-19 CNS
NCI-H522 lung = system: NCI-H522 lung
HCT-15 colon = system: HCT-15 colon
BT-549 breast = system: BT-549 breast

| SMILES | GI50 (SR leukemia) [µM] | TGI (SR leukemia) | GI50 (ACHN renal) | TGI (ACHN renal) | GI50 (SF-268 CNS) | TGI (SF-268 CNS) | GI50 (SK-MEL-5 melanoma) | TGI (SK-MEL-5 melanoma) | GI50 (SNB-19 CNS) [µM] | TGI (SNB-19 CNS) | GI50 (NCI-H522 lung) | TGI (NCI-H522 lung) | GI50 (HCT-15 colon) [µM] | TGI (HCT-15 colon) | GI50 (BT-549 breast) | TGI (BT-549 breast) |
| --- | --- | --- | --- | --- | --- | --- | --- | --- | --- | --- | --- | --- | --- | --- | --- | --- |
| COc1cc(/C=C/C(=O)CC(=O)/C=C/c2cc(OC)c(OC)c(OC)c2)cc(OC)c1OC | 2.19 | 9.55 µM | 3.95 µM | 14.1 µM | 8.23 µM | > 100 µM | 4.51 µM | 46 µM | 4.36 | > 100 µM | 1.9 µM | 3.78 µM | 3.32 | 12.7 µM | 4.28 µM | 22.1 µM |
| COc1cc2c(cc1OCCCOc1cc3c(cc1OC)C(=O)N1C[C@H](F)C[C@H]1C=N3)N=C[C@@H]1C[C@@H](F)CN1C2=O | 1.54 | 6.38 µM | 10.5 µM | 31.8 µM | 2.26 µM | 6.01 µM |  |  | 14 | 27.7 µM | 1.88 µM | 4.59 µM | 10.3 | 23.6 µM | 3.36 µM | 17.9 µM |
| CO[C@@H]1/C=C\C=C(/C)C(=O)NC2=CC(=O)C(NCCN(C)C)=C(C[C@@H](C)C[C@@H](OC)[C@@H](O)[C@H](C)/C=C(\C)[C@H]1OC(N)=O)C2=O |  | 10.6 µM | < 0.0167 µM and 0.0737 µM |  | 1.19 µM and 0.209 µM | 16.5 µM and 16.2 µM | < 0.01 µM and 0.0238 µM | 3.12 µM and 1.12 µM |  | 7.99 µM and 15.5 µM | < 0.01 µM and 0.0228 µM | 0.709 µM and 3.57 µM |  | 4.06 µM and 10.9 µM | 0.88 µM and 1.53 µM | 14.6 µM and 21.1 µM |
| COc1ccc(CN(C)c2ccc(CO)c(Cl)c2)cc1 | 27 | > 100 µM | 32.6 µM | > 100 µM | 33.4 µM | > 100 µM | 8.24 µM | 21.9 µM | 34 | > 100 µM | 22.4 µM | > 80.7 µM | 21 | > 100 µM | 19.8 µM | 73.7 µM |
| O=C1Nc2ccc(C(=O)c3ccco3)cc2/C1=C/c1cc(Cl)c(O)c(Cl)c1 | 3.03 | 18.8 µM | 2.14 µM | 11.1 µM | 5.94 µM | > 25 µM | 3.43 µM | 6.88 µM | 8.52 | > 25 µM | 3.91 µM | 11.9 µM | 4.16 | > 25 µM | 3.54 µM | 10.5 µM |
| O=c1ccn(C2OC(CO)C(O)C2F)c(=O)[nH]1 (configuration not stated) | > 1000 | > 1000 µM | > 1000 µM | > 1000 µM | > 1000 µM | > 1000 µM | > 1000 µM | > 1000 µM | > 1000 | > 1000 µM | > 1000 µM | > 1000 µM | > 1000 | > 1000 µM | > 85.9 µM | > 100 µM |
| CC(=O)[O-].CC(=O)[O-].[Pt+2].c1cscn1.c1cscn1 |  |  | 19.7 µM | 42.2 µM | > 100 µM | > 100 µM | > 100 µM | > 100 µM | > 100 | > 100 µM | 20.8 µM | 42.2 µM | 77.5 | > 100 µM |  |  |
| Cn1c([N+](=O)[O-])cnc1/C=C1\Oc2ccccc2C1=O | 0.0392 | 0.534 µM | 0.197 µM | 0.632 µM | 0.303 µM | 1.66 µM | 0.234 µM | 0.727 µM | 1.47 | 5.58 µM | 0.552 µM | 2.26 µM | 0.193 | 0.675 µM | 0.659 µM | 4.17 µM |
| COc1cc(OC)cc(C2CC(=O)Nc3c2c(C)nn3-c2nc3ccccc3[nH]2)c1 (configuration not stated) |  |  | 3.94 µM | 42.4 µM | 3.57 µM | > 100 µM | 1.97 µM | 4.27 µM | 4.13 | > 100 µM | 2.08 µM | 5.58 µM | 3.73 | > 100 µM | 2.46 µM | 7.86 µM |
| O=[N+]([O-])c1cc(Cl)c(Cl)c([N+](=O)[O-])c1Cl | 0.538 | 4.93 µM | 1.76 µM | 3.6 µM | 1.77 µM | 3.39 µM | 1.73 µM | 3.47 µM | 6.55 | 22.6 µM |  |  | 1 | 2.84 µM | 1.81 µM | 3.39 µM |
| CCN(CC)CCCC(C)Nc1c2ccc(Cl)cc2nc2ccc(OC)cc12 (configuration not stated) | 1.86 | 6 µM and 5.02 µM | 1.42 µM | 5.15 µM and 9.77 µM |  | 5.03 µM and 7.68 µM |  | 3.1 µM | 1.96 | 10.8 µM and 16.2 µM |  | 2.97 µM | 1.61 | 7.18 µM and 5.67 µM | 2.17 µM | 4.84 µM and 6.51 µM |
| CN[C@@H](C)C(=O)N[C@H](C(=O)N1CCC[C@H]1C(=O)N[C@H]1c2ccccc2C[C@H]1OCC#CC#CCO[C@@H]1Cc2ccccc2[C@@H]1NC(=O)[C@@H]1CCCN1C(=O)[C@@H](NC(=O)[C@H](C)NC)C1CCCCC1)C1CCCCC1 | 0.456 | 3.16 µM | 14.4 µM | 28.5 µM | 5.58 µM | 13.5 µM | 2.37 µM | 13.7 µM | 3.24 | 8.87 µM | 0.0623 µM | 2.37 µM | 17.5 | 40 µM | < 0.01 µM |  |
| NNC(=O)/C(=C/c1ccc(Cl)c(Cl)c1)NC(=O)c1ccccc1 |  |  |  | > 100 µM |  | > 100 µM |  | > 100 µM |  | > 100 µM |  |  |  |  |  |  |
| COc1ccc([N+](=O)[O-])c2c(NCCCN(C)C)c3ccccc3nc12 |  |  |  | 0.389 µM |  | 3.44 µM |  | 0.243 µM |  | 3.51 µM |  | 0.145 µM |  | 1.39 µM |  | 2.83 µM |
| CCN1CCN(C(=O)[C@]23CC[C@@H](C)[C@H](C)[C@@H]2C2=CC[C@@H]4[C@@]5(C)C/C(=C/c6ccncc6)C(=O)C(C)(C)[C@@H]5CC[C@@]4(C)[C@]2(C)CC3)CC1 | 1.89 | 5.29 µM | 1.73 µM | 3.1 µM | 1.64 µM | 3.13 µM | 1.75 µM | 3.14 µM | 1.58 | 2.99 µM |  |  | 1.65 | 3.35 µM | 1.78 µM | 3.78 µM |
| O=C1c2ccccc2-c2cccc3ccc(Cc4ccc5ccccc5c4)c1c23 |  |  |  | > 100 µM |  | > 100 µM |  | > 100 µM |  | > 100 µM |  | > 100 µM |  | > 100 µM |  |  |
| Cc1cc(C)c([O-])c(CN(C)CCN(C)Cc2cc(C)cc(C)c2[O-])c1.O=C([O-])c1cccc(C(=O)[O-])n1.[Ti+4] |  |  | 2.43 µM | > 100 µM | 3.91 µM | > 100 µM | 2.9 µM | > 100 µM | 3.25 | > 100 µM | 2.08 µM | 5.47 µM | 3.5 | > 100 µM |  |  |
